# Square brackets hold non-standard residues; d marks the D form. Ends that are not written are not given here. pY = N[C@@H](Cc1ccc(OP(=O)(O)O)cc1)C(=O)O
# Tested on: bone marrow progenitor cells
# Assay: DC differentiation/maturation from bone marrow progenitor cells in the presence of tumor supernatants
# Assay type: cell-based, mouse
# Conditions: supernatant from CT26 tumor cells (5%), 375 μM peptide, 6 days
# Protocol: FIG. 7. Inhibition of Stat activity in dendritic cells alleviates the negative effect of tumor-secreted factors on DC differentiation. a, Stat activation in DCs treated for 1 hour with recombinant VEGF (100 ng/ml) or incubated for 15 min. with various supernatants as indicated. […] Bone marrow progenitor cells were cultured for 6 days in DC medium alone or in the presence of supernatant from CT26 tumor cells (5%) plus 375 μM of anti-Stat3 (PY*LKTK) (SEQ ID NO: 11); or control (PYLKTK) (SEQ ID NO: 12); peptide.
# Preparation of bone marrow progenitor cells (BMPCs) and generation of bone marrow-derived mature DCs were carried out according to a previously described protocol (Lu et al., 2000, J. Exp. Med. 191: 541-550). Relatively mature DCs were obtained by incubating, BMPCs in medium containing GM-CSF and IL-4 for 6 days. […] Following 48 hours culture, suspension cells were collected and analyzed for IL-12 secretion by ELISA (R & D) and expression of DC-surface markers (CD86, CD40 and MHC Class II) by flow cytometry. All antibodies were purchased from PharMingen and surface expression was analyzed using a FACScan cytofluorometer (Becton Dickinson) as previously described, (Lu et al., 2000, supra). […] T-cell proliferation was measured by [^3H]-thymidine incorporation over 18 hours.
substance,measurement,value
PY*LKTK (P[pY]LKTK),effect of tumor-derived factors on DC differentiation,relieve the negative effect of tumor-derived factors on DC differentiation
